In ChEMBL document CHEMBL3112492, “Antiprotozoan lead discovery by aligning dry and wet screening: prediction, synthesis, and biological assay of novel quinoxalinones” (Bioorg Med Chem, 2014):
≈ marks a conversion by molar mass, not a printed value. Calls of active or inactive are those of the source. No cut-off for these calls is given here.

Experiments:
[1] = Inhibition of ferriprotoporphyrin-9 biocrystallization by micro-ELISA
Acanthamoeba castellanii = assay: Antiprotozoal activity against trophozoite stage of Acanthamoeba castellanii Neff ATCC 30010 after 72 to 120 hrs by Alamar Blue assay; format: functional; settings: Acanthamoeba castellanii str. Neff
Trichomonas vaginalis [2] = assay: Trichomonastatic activity against Trichomonas vaginalis JH31A at 100 ug/ml after 24 hrs by Neubauer chamber analysis relative to control; format: functional
Trichomonas vaginalis [3] = assay: Trichomonastatic activity against Trichomonas vaginalis JH31A at 1 ug/ml after 48 hrs by Neubauer chamber analysis relative to control; format: functional
Toxoplasma gondii [4] = assay: Antiprotozoal activity against tachyzoite stage of Toxoplasma gondii RH assessed as viability at 1 mM after 4 hrs by trypan blue exclusion assay relative to control; format: functional
Toxoplasma gondii [5] = assay: Antiprotozoal activity against tachyzoite stage of Toxoplasma gondii RH assessed as viability at 200 uM after 4 hrs by trypan blue exclusion assay relative to control; format: functional
Trichomonas vaginalis [6] = assay: Trichomonastatic activity against Trichomonas vaginalis JH31A at 100 ug/ml after 48 hrs by Neubauer chamber analysis relative to control; format: functional
Plasmodium falciparum = assay: Antimalarial activity against intraerythrocytic asexual stage of Plasmodium falciparum 3D7 assessed as inhibition of [G-3H]-hypoxanthine uptake by semiautomated microdilution method; format: functional, organism-based
Trichomonas vaginalis [7] = assay: Trichomonastatic activity against Trichomonas vaginalis JH31A at 1 ug/ml after 24 hrs by Neubauer chamber analysis relative to control; format: functional
Trichomonas vaginalis [8] = assay: Trichomonastatic activity against Trichomonas vaginalis JH31A at 10 ug/ml after 24 hrs by Neubauer chamber analysis relative to control; format: functional
Toxoplasma gondii [9] = assay: Antiprotozoal activity against tachyzoite stage of Toxoplasma gondii RH assessed as viability at 500 uM after 4 hrs by trypan blue exclusion assay relative to control; format: functional
Toxoplasma gondii [10] = assay: Antiprotozoal activity against tachyzoite stage of Toxoplasma gondii RH assessed as viability at 100 uM after 4 hrs by trypan blue exclusion assay relative to control; format: functional
Trichomonas vaginalis [11] = assay: Trichomonastatic activity against Trichomonas vaginalis JH31A at 10 ug/ml after 48 hrs by Neubauer chamber analysis relative to control; format: functional
Leishmania braziliensis = assay: Antiprotozoal activity against metacyclic promastigote stage of Leishmania braziliensis MHOM/PE/95/LQ2 assessed as growth inhibition after 72 hrs by Alamar Blue assay; format: functional, organism-based; settings: for IC50: MHOM/PE/95/LQ2, 72 h
Toxoplasma gondii [12] = assay: Antiprotozoal activity against tachyzoite stage of Toxoplasma gondii RH assessed as extrusion of cytoplasmic content by light microscopic analysis; format: functional, organism-based
J774 [13] = assay: Cytotoxicity against mouse J774 cells at 10 ug/mL after 24 hrs by MTT assay; format: cell-based; settings: j774, 24 h
Trichomonas vaginalis [14] = assay: Trichomonacidal activity against Trichomonas vaginalis JH31A at 100 ug/ml after 48 hrs by Neubauer chamber analysis relative to control; format: functional
Trypanosoma cruzi [15] = assay: Trypanocidal activity against epimastigote stage of Trypanosoma cruzi CL Brener at 10 ug/mL after 72 hrs by beta-galactosidase reporter gene assay relative to control; format: functional
Trichomonas vaginalis [16] = assay: Trichomonacidal activity against Trichomonas vaginalis JH31A at 100 ug/ml after 24 hrs by Neubauer chamber analysis relative to control; format: functional
J774 [17] = assay: Cytotoxicity against mouse J774 cells at 1 ug/mL after 24 hrs by MTT assay; format: cell-based; settings: j774, 24 h
Trypanosoma cruzi [18] = assay: Trypanocidal activity against epimastigote stage of Trypanosoma cruzi CL Brener at 1 ug/mL after 72 hrs by beta-galactosidase reporter gene assay relative to control; format: functional
Trypanosoma cruzi [19] = assay: Trypanocidal activity against epimastigote stage of Trypanosoma cruzi CL Brener at 100 ug/mL after 72 hrs by beta-galactosidase reporter gene assay relative to control; format: functional
J774 [20] = assay: Cytotoxicity against mouse J774 cells at 100 ug/mL after 24 hrs by MTT assay; format: cell-based; settings: j774, 24 h
Trichomonas vaginalis [21] = assay: Trichomonacidal activity against Trichomonas vaginalis JH31A at 1 ug/ml after 24 hrs by Neubauer chamber analysis relative to control; format: functional
Trichomonas vaginalis [22] = assay: Trichomonacidal activity against Trichomonas vaginalis JH31A at 1 ug/ml after 48 hrs by Neubauer chamber analysis relative to control; format: functional
Trichomonas vaginalis [23] = assay: Trichomonacidal activity against Trichomonas vaginalis JH31A at 0.5 ug/ml after 48 hrs by Neubauer chamber analysis relative to control; format: functional
Trichomonas vaginalis [24] = assay: Trichomonacidal activity against Trichomonas vaginalis JH31A at 2 ug/ml after 48 hrs by Neubauer chamber analysis relative to control; format: functional
Trichomonas vaginalis [25] = assay: Trichomonacidal activity against Trichomonas vaginalis JH31A at 2 ug/ml after 24 hrs by Neubauer chamber analysis relative to control; format: functional
Trichomonas vaginalis [26] = assay: Trichomonacidal activity against Trichomonas vaginalis JH31A at 0.5 ug/ml after 24 hrs by Neubauer chamber analysis relative to control; format: functional
Trichomonas vaginalis [27] = assay: Trichomonacidal activity against Trichomonas vaginalis JH31A at 10 ug/ml after 24 hrs by Neubauer chamber analysis relative to control; format: functional

Compound | IC50 [1] [µg/mL] | IC50 (Plasmodium falciparum) [µg/mL] | Activity (Acanthamoeba castellanii) | Activity (Trichomonas vaginalis [3]) [%] | Activity (Toxoplasma gondii [4]) [%] | Activity (Toxoplasma gondii [5]) [%] | Activity (Trichomonas vaginalis [7]) [%] | Activity (Trichomonas vaginalis [8]) [%] | Activity (Toxoplasma gondii [9]) [%] | Activity (Toxoplasma gondii [10]) [%] | Activity (Trichomonas vaginalis [11]) [%] | growth inhibition (GI) (Leishmania braziliensis) | Activity (J774 [13]) [%] | Activity (Trichomonas vaginalis [14]) [%] | Activity (Trypanosoma cruzi [15]) [%] | Activity (Trichomonas vaginalis [16]) [%] | Activity (Trypanosoma cruzi [18]) [%] | Activity (Trypanosoma cruzi [19]) [%] | Activity (J774 [20]) [%] | IC50 (Leishmania braziliensis) [µg/mL] | other results
Br.O=C1CN(CCCCCN2CCCCCC2)c2ccc([N+](=O)[O-])cc2N1 | > 2000 | 5.72 | inactive | 0 | 0 | 82 | 2.35 | 12.94 | 0 | 88 | 0 | Dose-dependent effect | 5.78 | 100 | 23.84 | 100 | 8.35 | 97.73 | 59.14 | 39.3 | Activity (Toxoplasma gondii [12]): Active; Activity (J774 [17]): 0%
Cc1ncc([N+](=O)[O-])n1CCO [METRONIDAZOLE] |  |  |  |  |  |  |  |  |  |  |  |  |  |  |  |  |  |  |  |  | Activity (Trichomonas vaginalis [21]): 99.1%; Activity (Trichomonas vaginalis [22]): 100%; Activity (Trichomonas vaginalis [23]): 99.5%; Activity (Trichomonas vaginalis [24]): 100%; Activity (Trichomonas vaginalis [25]): 100%; Activity (Trichomonas vaginalis [26]): 98%
CC1CS(=O)(=O)CCN1/N=C/c1ccc([N+](=O)[O-])o1 (stereo unspecified) [NIFURTIMOX] |  |  |  |  |  |  |  |  |  |  |  |  | 0.6 |  | 90 |  | 75.5 | 98.73 | 25.9 |  | Activity (J774 [17]): 0%
Br.CN1C(=O)CN(CCCCCN2CCCCCC2)c2ccc([N+](=O)[O-])cc21 | 1950 | > 10 | inactive | 2.87 | 0 | 77 | 10.98 |  | 71 | 81 | 70.41 | Dose-dependent effect | 20.24 | 100 | 15.38 | 100 | 0 | 65.46 | 75.75 | 5.3 | Activity (Toxoplasma gondii [12]): Active; Activity (Trichomonas vaginalis [27]): 91.61%
Br.O=C1CN(CCCCCN2CCc3ccccc3C2)c2ccc([N+](=O)[O-])cc2N1 | 1530 | > 10 | inactive | 0 |  |  | 3.53 | 83.76 |  |  | 44.06 | Dose-dependent effect | 13.25 | 100 | 56.77 | 100 | 12.49 | 87.83 | 100 | 31.3 | Activity (J774 [17]): 9.89%
Br.CN1C(=O)CN(CCCCCN2CCCCC2)c2ccc([N+](=O)[O-])cc21 | > 2000 | > 10 | inactive | 0 | 36 | 90 | 0 |  | 40 | 96 | 86.52 | Dose-dependent effect | 11.57 | 100 | 60.68 | 100 | 7.93 | 79.12 | 61.38 | 9.57 | Activity (Trichomonas vaginalis [27]): 92.63%

More lines, main results first:

IC50 [1] [µg/mL] | IC50 (Plasmodium falciparum) [µg/mL] | Compound | Activity (Acanthamoeba castellanii) | Activity (Trichomonas vaginalis [3]) [%] | Activity (Toxoplasma gondii [4]) [%] | Activity (Toxoplasma gondii [5]) [%] | Activity (Trichomonas vaginalis [7]) [%] | Activity (Trichomonas vaginalis [8]) [%] | Activity (Toxoplasma gondii [9]) [%] | Activity (Toxoplasma gondii [10]) [%] | Activity (Trichomonas vaginalis [11]) [%] | growth inhibition (GI) (Leishmania braziliensis) | Activity (J774 [13]) [%] | Activity (Trichomonas vaginalis [14]) [%] | Activity (Trypanosoma cruzi [15]) [%] | Activity (Trichomonas vaginalis [16]) [%] | Activity (Trypanosoma cruzi [18]) [%] | Activity (Trypanosoma cruzi [19]) [%] | Activity (J774 [20]) [%] | IC50 (Leishmania braziliensis) [µg/mL] | other results
40 (≈ 125 µM) |  | CCN(CC)CCCC(C)Nc1ccnc2cc(Cl)ccc12 (stereo unspecified) [CHLOROQUINE] |  |  |  |  |  |  |  |  |  |  |  |  |  |  |  |  |  |  | 
> 2000 | > 10 | Br.CN(C)CCCCCN1CC(=O)Nc2cc([N+](=O)[O-])ccc21 | inactive | 0 | 73 | 96 | 1.22 | 11.43 | 93 | 95 | 14.68 | inactive |  |  |  |  |  |  |  |  | Activity (Trichomonas vaginalis [2]): 29.39%; Activity (Trichomonas vaginalis [6]): 28.33%
> 2000 | > 10 | Br.O=C1CN(CCCCCN2CCCCC2)c2ccc([N+](=O)[O-])cc2N1 | inactive | 0 | 0 | 68 | 0 | 20.94 | 0 | 92 | 5.74 | Dose-dependent effect | 0 | 100 | 17.68 | 99.37 | 1.78 | 82.4 | 3.36 | 64.6 | Activity (Toxoplasma gondii [12]): Active; Activity (J774 [17]): 0%
> 2000 | > 10 | Br.O=C1CN(CCCCCN2CCCC2)c2ccc([N+](=O)[O-])cc2N1 | inactive | 0 | 0 | 85 | 3.53 | 21.02 | 0 | 91 | 1.64 | inactive | 0 |  | 5.35 |  | 4.38 | 83.54 | 0 |  | Activity (Toxoplasma gondii [12]): Active; Activity (Trichomonas vaginalis [2]): 75.61%; Activity (Trichomonas vaginalis [6]): 34.26%; Activity (J774 [17]): 0%
950 | 6.47 | Br.CN1C(=O)CN(CCCCCN2CCc3ccccc3C2)c2ccc([N+](=O)[O-])cc21 | inactive | 4.1 |  |  | 4.71 | 70.98 |  |  | 23.28 | inactive | 24.44 | 100 | 15.62 | 100 | 11.77 | 19.78 | 99.44 |  | 
> 2000 | > 10 | Br.CN(C)CCCCCN1CC(=O)N(C)c2cc([N+](=O)[O-])ccc21 | inactive | 0 | 81 | 90 | 8.98 | 45.71 | 93 | 81 | 11.26 | Dose-dependent effect |  | 100 |  | 100 |  |  |  | 8.15 | 
> 2000 | > 10 | Br.CN1C(=O)CN(CCCCCN2CCCC2)c2ccc([N+](=O)[O-])cc21 | inactive | 4.1 | 38 | 84 | 0 |  | 58 | 89 | 67.7 | Dose-dependent effect | 0 | 100 | 2.51 | 100 | 0 | 6.36 | 49.25 | 5.3 | Activity (Trichomonas vaginalis [27]): 89.25%; Activity (J774 [17]): 0%
